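A five-concentration, 48-hour dose response in 96-well plates underlies each endpoint, interpolated linearly between surrounding concentrations. TGI: concentration producing complete growth inhibition.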

The TGI is the concentration giving total growth inhibition. Lower therefore signals more potent growth arrest.

Among the test systems are UO-31 renal; MDA-MB-231 breast; NCI-H23 lung; RPMI-8226 leukemia; CAKI-1 renal; HCC-2998 colon; HT29 colon; CCRF-CEM leukemia; SK-MEL-5 melanoma; IGROV1 ovarian; NCI/ADR-RES ovarian; UACC-257 melanoma; SF-268 CNS; NCI-H522 lung; HCT-116 colon; SNB-19 CNS; 786-0 renal; UACC-62 melanoma; MDA-N; HOP-92 NSCLC.
What all share (assay): DTP human tumour cell line panel, 48 h

In the case of `COC(=O)/C=C1/OC(c2ccc(Br)cc2)=C(Br)C1=O`, the TGI with UO-31 renal stood at 24.4 µM; with MDA-MB-231 breast it was 8.17 µM; in the assay on NCI-H23 lung, 17.1 µM; in the assay on RPMI-8226 leukemia, 6.06 µM; in the assay on CAKI-1 renal, 6.32 µM; in the assay with HCC-2998 colon, 18.6 µM. The TGI was found to be 11.3 µM in the assay with HT29 colon; 6.22 µM in the assay on CCRF-CEM leukemia; 19.9 µM in the assay with SK-MEL-5 melanoma; 17 µM with IGROV1 ovarian; 32.9 µM in the assay with NCI/ADR-RES ovarian; 27.5 µM in the assay on UACC-257 melanoma. For the same compound, the TGI in the assay on SF-268 CNS stood at 17 µM; in the assay with NCI-H522 lung, 10.7 µM; with HCT-116 colon it was 7.75 µM; in the assay on SNB-19 CNS, 28.9 µM; with 786-0 renal, 6.31 µM; in the assay with UACC-62 melanoma, 20.5 µM. Besides, the total growth inhibition concentration (TGI) in the assay on MDA-N amounted to 12.6 µM; with HOP-92 NSCLC it was 25.2 µM.

Turning to `C/C=C/C=C/C1=NN(c2cccc(S(=O)(=O)O)c2)C2(C1)C(Cl)C(=O)N2c1nc2ccccc2s1` (stereo not given), the total growth inhibition concentration (TGI) was 4.15 µM with UO-31 renal; 28.9 µM in the assay with MDA-MB-231 breast; 32.1 µM in the assay with NCI-H23 lung; greater than 51.6 µM in the assay on RPMI-8226 leukemia; 20.9 µM in the assay with CAKI-1 renal; 31.5 µM in the assay on HCC-2998 colon. For the same compound, the concentration for total growth inhibition (TGI) in the assay with HT29 colon was 33.3 µM; in the assay on CCRF-CEM leukemia, 13.1 µM; with SK-MEL-5 melanoma, 25.1 µM; in the assay with IGROV1 ovarian it was 25.4 µM; with NCI/ADR-RES ovarian it was greater than 82.7 µM; with UACC-257 melanoma, 33.5 µM. In addition, the TGI was found to be 38.4 µM with SF-268 CNS; 13.3 µM in the assay on NCI-H522 lung; 27.7 µM in the assay on HCT-116 colon; 29.9 µM in the assay on SNB-19 CNS; 26.7 µM with 786-0 renal; 26.2 µM in the assay on UACC-62 melanoma. Moreover, the concentration for total growth inhibition (TGI) in the assay with MDA-N was 29 µM; in the assay on HOP-92 NSCLC it was 48.2 µM.

Turning to `CCOC(=O)N/N=C/C1=NN(C(=O)OCC)S(=O)C1C` (stereo not given), the TGI in the assay on UO-31 renal, in the assay with MDA-MB-231 breast, with NCI-H23 lung, with RPMI-8226 leukemia, with CAKI-1 renal and in the assay on HCC-2998 colon was greater than 100 µM in each case. The TGI in the assay on HT29 colon, with CCRF-CEM leukemia, in the assay with SK-MEL-5 melanoma, in the assay on IGROV1 ovarian, with NCI/ADR-RES ovarian and in the assay on UACC-257 melanoma was greater than 100 µM each time. Moreover, the TGI with SF-268 CNS, in the assay on NCI-H522 lung, in the assay with HCT-116 colon, with SNB-19 CNS, in the assay with 786-0 renal and in the assay on UACC-62 melanoma was greater than 100 µM in each case. Further, the TGI in the assay with MDA-N and with HOP-92 NSCLC was greater than 100 µM in each case.

For the compound `NC(N)=NS(=O)(=O)c1ccc(Nc2c3ccccc3nc3ccc(C(=O)Nc4ccc(S(N)(=O)=O)cc4)cc23)cc1`, the TGI with UO-31 renal, in the assay on MDA-MB-231 breast, in the assay on NCI-H23 lung, in the assay with RPMI-8226 leukemia, in the assay on CAKI-1 renal and with HCC-2998 colon was greater than 100 µM throughout. The TGI in the assay on HT29 colon, in the assay on CCRF-CEM leukemia, with SK-MEL-5 melanoma, with IGROV1 ovarian, in the assay on NCI/ADR-RES ovarian and in the assay with UACC-257 melanoma was greater than 100 µM in each case. For the same compound, the TGI in the assay on SF-268 CNS, in the assay on NCI-H522 lung, with HCT-116 colon, with SNB-19 CNS, with 786-0 renal and in the assay with UACC-62 melanoma was greater than 100 µM each time. In addition, the TGI in the assay with MDA-N and in the assay on HOP-92 NSCLC was greater than 100 µM throughout.

On to `CCOC(=O)c1ccc(-c2cccs2)n1C`, for which the TGI with UO-31 renal, in the assay with MDA-MB-231 breast, in the assay with NCI-H23 lung, in the assay on RPMI-8226 leukemia, in the assay with CAKI-1 renal and in the assay with HCC-2998 colon was greater than 100 µM in each case. The total growth inhibition concentration (TGI) with HT29 colon, with CCRF-CEM leukemia, with SK-MEL-5 melanoma, with IGROV1 ovarian, in the assay with NCI/ADR-RES ovarian and in the assay with UACC-257 melanoma was greater than 100 µM each time. Moreover, the concentration for total growth inhibition (TGI) in the assay on SF-268 CNS, in the assay on NCI-H522 lung, in the assay with HCT-116 colon, in the assay on SNB-19 CNS, in the assay on 786-0 renal and with UACC-62 melanoma was greater than 100 µM in each case. Also, the values for the TGI in the assay with MDA-N and in the assay with HOP-92 NSCLC were greater than 100 µM and greater than 94.8 µM, respectively.

For the compound `O=C(O)c1cnccc1-c1cc(=O)[nH]n1-c1ccccc1`, the TGI in the assay on UO-31 renal was greater than 100 µM; with MDA-MB-231 breast it was greater than 100 µM; with NCI-H23 lung, greater than 100 µM; with RPMI-8226 leukemia, greater than 100 µM; in the assay with CAKI-1 renal, greater than 100 µM; with HCC-2998 colon, greater than 63.2 µM. The TGI with HT29 colon was greater than 67.1 µM; with CCRF-CEM leukemia, greater than 100 µM; in the assay with SK-MEL-5 melanoma, greater than 100 µM; in the assay with IGROV1 ovarian, greater than 100 µM; in the assay with NCI/ADR-RES ovarian it was greater than 100 µM; in the assay on UACC-257 melanoma, greater than 100 µM. Further, the TGI with SF-268 CNS, in the assay with NCI-H522 lung, in the assay on HCT-116 colon, in the assay with SNB-19 CNS, in the assay on 786-0 renal and with UACC-62 melanoma was greater than 100 µM throughout. The total growth inhibition concentration (TGI) in the assay on MDA-N and with HOP-92 NSCLC was greater than 100 µM in each case.

Source of the values: PubChem BioAssay (NCI).
